This note sets out measurements from patent publication US20170143608A1, “SKIN COLOR-IMPROVING AGENT AND COMPOSITION FOR IMPROVING SKIN COLOR” (priority 2014, published 2017).

Assay [1] relates to UDP-glucuronosyltransferase gene (UGT1A1 gene). The experiment in a line: Expression promoting effect on UDP-glucuronosyltransferase gene in NB1-RGB cells (quantitative real-time PCR). It is filed as cell-based, human. The following applies: for expression promoting effect on UGT1A1 gene compared to dl-α-tocopherol acetate group (in words): compared to the group in which dl-α-tocopherol acetate was added; for Relative gene expression level UGT1A1: final concentration 0.2 μm, 72 hours, standardized to GAPDH, 50% ethanol control = 1.00.
Procedure: (§1) Specifically, the NB1-RGB cells were prepared at a seeding density of 10,000 cells/cm^2, and were cultured for 24 hours in a DMEM medium containing 10% fetal bovine serum. […] In addition, one obtained by adding only 50% ethanol to the medium of cells was used as the control.
(§2) Next, all RNA was extracted from each cell, cDNA was synthesized, quantitative real-time PCR was performed using this cDNA as a template, and the expression levels of the HO-1 gene and UGT1A1 gene were quantified.

Assay [2] concerns heme oxygenase gene (HO-1 gene). The experiment in a line: Expression promoting effect on heme oxygenase gene in NB1-RGB cells (quantitative real-time PCR). The following applies: for expression promoting effect on HO-1 gene compared to dl-α-tocopherol acetate group (in words): compared to the group in which dl-α-tocopherol acetate was added; for Relative gene expression level HO-1: final concentration 0.2 μm, 72 hours, standardized to GAPDH, 50% ethanol control = 1.00.
Procedure: as §1, §2

With `Cc1c(C)c2c(c(C)c1OP(=O)([O-])[O-])CCC(C)(CCCC(C)CCCC(C)CCCC(C)C)O2.[Na+].[Na+]` (stereo not drawn) [sodium α-tocopheryl phosphate], in assay [1], the “expression promoting effect on UGT1A1 gene compared to the control (in words)” value is “expression promoting effect”, the “expression promoting effect on UGT1A1 gene compared to dl-α-tocopherol acetate group (in words)” value is “higher expression promoting effect” and the “Relative gene expression level UGT1A1” value worked out at 59.11. For the same molecule, in assay [2], the “expression promoting effect on HO-1 gene compared to the control (in words)” value is “expression promoting effect”, the “expression promoting effect on HO-1 gene compared to dl-α-tocopherol acetate group (in words)” value is on record as “higher expression promoting effect” and the “Relative gene expression level HO-1” value came to 1.40.

Consider `Cc1c(OP(=O)([O-])[O-])cc2c(c1C)O[C@](C)(CCC[C@H](C)CCC[C@H](C)CCCC(C)C)CC2.[Na+].[Na+]` [sodium γ-tocopheryl phosphate], for which, in assay [1], the “expression promoting effect on UGT1A1 gene compared to the control (in words)” value is “expression promoting effect”, the “expression promoting effect on UGT1A1 gene compared to dl-α-tocopherol acetate group (in words)” value is on record as “higher expression promoting effect” and the “Relative gene expression level UGT1A1” value was 42.98. In assay [2], the “expression promoting effect on HO-1 gene compared to the control (in words)” value is reported as “expression promoting effect”, the “expression promoting effect on HO-1 gene compared to dl-α-tocopherol acetate group (in words)” value is on record as “higher expression promoting effect” and the “Relative gene expression level HO-1” value is 1.21.

Turning to `CC(=O)Oc1c(C)c(C)c2c(c1C)CCC(C)(CCCC(C)CCCC(C)CCCC(C)C)O2` (racemic) [dl-α-tocopherol acetate, reference compound], the “Relative gene expression level UGT1A1” value in assay [1] stood at 34.84. Moreover, in assay [2], the “Relative gene expression level HO-1” value came to 0.97.
